Test: Solubility of tin ions in polyol solutions with SnF2 at various pH (visual appearance)
Assay type: physicochemical
Conditions: for Appearance of polyol solution with SnF2, pH 2-4 / Appearance of polyol solution with SnF2, pH 4-6 / Appearance of polyol solution with SnF2, pH 6-8 / Appearance of polyol solution with SnF2, pH 8-10: aqueous polyol solution + 0.45 g SnF2; for Appearance of polyol solution with SnF2, pH 2-4 / Appearance of polyol solution with SnF2, pH 4-6 / Appearance of polyol solution with SnF2, pH 6-8: cloudy = insoluble tin complexes formed; for Appearance of polyol solution with SnF2, pH 8-10: cloudy = Sn(OH)2 formed; for Appearance of polyol/stannous fluoride solution at a pH of greater than 7: aqueous polyol/stannous fluoride solution, pH greater than 7, cloudy = Sn(OH)2 formation not prevented
Protocol: A 30% (w/w) solution was prepared for each polyol was prepared using the appropriate amount of the pure polyol and deionized water. Next, 46 g of the 30% (w/w) polyol solution was placed in a 250 mL glass beaker with a stirring bar on top of a magnetic stirring apparatus. 21 g of deionized water was added to the glass beaker and the magnetic stirring apparatus was started to commence stirring of the solution. A pH electrode was connected to a pH meter (VWR Scientific, Model 9100, Radnor, Pa.) and the pH electrode (ThermoFisher Scientific, Orion 8165BNWP, Waltham, Mass.) was placed in the stirring polyol solution.
0.45 grams of a tin ion source, such as stannous fluoride, was added to the stirring polyol solution. The pH was recorded once the tin ion source was completely added. The pH of the solution was increased by dropwise addition of a 33% (w/w) solution of NaOH.
0.45 grams of a tin ion source, such as stannous fluoride, was added to the stirring polyol solution. The pH was recorded once the tin ion source was completely added. The pH of the solution was decreased by dropwise addition of a 33% (w/w) solution of HCl.
A solution that appeared cloudy indicated the formation of insoluble tin complexes. At a pH of greater than 7, a cloudy solution indicated the formation of Sn(OH)2. FIG. 1-4 illustrates TABLE 2 by showing the appearance of each solution described in TABLE 2.

Compound | Appearance of polyol solution with SnF2, pH 2-4 | Appearance of polyol solution with SnF2, pH 2-4 (listed as sorbitol) | Appearance of polyol solution with SnF2, pH 4-6 | Appearance of polyol solution with SnF2, pH 4-6 (listed as sorbitol) | Appearance of polyol solution with SnF2, pH 6-8 | Appearance of polyol solution with SnF2, pH 6-8 (listed as sorbitol) | Appearance of polyol solution with SnF2, pH 8-10 | Appearance of polyol solution with SnF2, pH 8-10 (listed as sorbitol) | Appearance of polyol/stannous fluoride solution at a pH of greater than 7 | Appearance of polyol solution with SnF2, pH 2-4 (listed as xylitol) | Appearance of polyol solution with SnF2, pH 4-6 (listed as xylitol) | Appearance of polyol solution with SnF2, pH 6-8 (listed as xylitol) | Appearance of polyol solution with SnF2, pH 8-10 (listed as xylitol)
OC[C@@H](O)[C@@H](O)[C@H](O)[C@@H](O)CO [Sorbitol (6 Carbon), Sorbitol] | Clear | clear | Cloudy | cloudy | Cloudy | cloudy | Clear | clear | – | – | – | – | –
OC[C@@H](O)[C@@H](O)CO [Erythritol (4 Carbon), Erythritol] | Clear | – | Cloudy | – | Cloudy | – | Cloudy | – | cloudy | – | – | – | –
OCC(O)CO [Glycerin (3 Carbon), Glycerin] | Clear | – | Clear | – | Cloudy | – | Cloudy | – | cloudy | – | – | – | –
OC[C@@H](O)[C@H](O)[C@@H](O)CO [Xylitol (5 Carbon), Xylitol] | Clear | – | Cloudy | – | Cloudy | – | Clear | – | – | clear | cloudy | cloudy | clear

— US11839671B2, “Oral care compositions comprising tin ions” (The Procter & Gamble Company, priority 2019, dated 2023)
